Test results taken from EP4745134A1 (Jiangsu Yahong Meditech Co., Ltd., priority 2023, dated 2025).
Read-outs that look alike come from different tables or passages of the source.

What was measured:
PRMT5-MTA = PRMT5-MTA (Homo sapiens, UniProt O14744); assay: Enzymatic inhibitory activity against PRMT5-MTA (AlphaScreen); type: biochemical
Procedure, shortened: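 PRMT5/[…] (1 nM) was preincubated for 30 min at room temperature with 1 µM […] and 2.5 µM SAM, then exposed to compound (10-point, 3-fold from 1000 nM) for 15 min at 23 °C. Histone H4 substrate (5 nM) was added and reacted for 45 min at 23 °C. Symmetric dimethyl-R3 H4 was detected by AlphaScreen and IC50 calculated.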

HCT116 MTAP KO cells = assay: Inhibitory activity against cell proliferation (CellTiter Glo, 6 days), HCT116 MTAP KO; type: cell-based; details: for IC50: Homo sapiens, HCT-116, 144 h, HCT116 MTAP KO cells, 6 days, CellTiter Glo, read-out: HCT116 MTAP KO IC50; for Selectivity HCT 116-WT/ HCT116 MTAP KO: ratio of IC50 HCT116-WT / HCT116 MTAP KO
Procedure, shortened: (§1)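 250 cells/well, McCoy's 5A + 10% FBS, o/n 37°C 5% CO2; cpd 8-pt 4-fold from 10000 nM, 6 d; CTG lum on day 7; IC50 vs DMSO.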

HCT116-WT cells = assay: Inhibitory activity against cell proliferation (CellTiter Glo, 6 days), HCT116-WT; type: cell-based; details: 144 h, HCT116-WT cells, 6 days, CellTiter Glo; read-out: HCT116-WT IC50
Procedure, shortened: as §1

Chain of PRMT5-MTA (O14744 whole entry): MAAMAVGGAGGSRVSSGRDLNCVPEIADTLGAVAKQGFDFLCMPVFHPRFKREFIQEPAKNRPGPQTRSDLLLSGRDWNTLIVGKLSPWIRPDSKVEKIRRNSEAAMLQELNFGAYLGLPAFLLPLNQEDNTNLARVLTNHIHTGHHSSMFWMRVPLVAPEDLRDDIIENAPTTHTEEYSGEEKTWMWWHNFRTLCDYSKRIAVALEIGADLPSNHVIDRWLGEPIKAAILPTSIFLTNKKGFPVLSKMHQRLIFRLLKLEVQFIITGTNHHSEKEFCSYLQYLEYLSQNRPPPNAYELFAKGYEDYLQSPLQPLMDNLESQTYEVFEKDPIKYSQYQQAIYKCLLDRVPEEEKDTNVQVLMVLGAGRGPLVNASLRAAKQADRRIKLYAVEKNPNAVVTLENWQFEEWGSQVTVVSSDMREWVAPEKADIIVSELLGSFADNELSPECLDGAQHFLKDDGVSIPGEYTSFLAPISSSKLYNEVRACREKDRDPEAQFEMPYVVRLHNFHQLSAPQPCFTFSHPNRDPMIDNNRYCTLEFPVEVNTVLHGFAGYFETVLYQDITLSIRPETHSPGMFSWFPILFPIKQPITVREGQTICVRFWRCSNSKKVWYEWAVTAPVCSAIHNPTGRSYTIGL
Chain of PRMT5-MTA (Q9BQA1 whole entry partner): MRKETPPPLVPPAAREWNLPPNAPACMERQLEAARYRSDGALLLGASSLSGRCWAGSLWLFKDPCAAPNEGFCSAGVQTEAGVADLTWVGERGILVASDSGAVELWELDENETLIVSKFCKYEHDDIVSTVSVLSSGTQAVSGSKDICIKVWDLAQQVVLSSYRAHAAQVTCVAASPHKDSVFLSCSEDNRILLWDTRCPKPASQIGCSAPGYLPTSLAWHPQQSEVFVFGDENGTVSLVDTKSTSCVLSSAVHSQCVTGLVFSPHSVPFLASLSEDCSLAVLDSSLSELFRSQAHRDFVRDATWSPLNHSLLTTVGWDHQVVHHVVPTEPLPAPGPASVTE

Structure (SMILES) | IC50 (PRMT5-MTA) [nM] | IC50 (HCT116 MTAP KO cells) [nM] | Selectivity HCT 116-WT/ HCT116 MTAP KO (HCT116 MTAP KO cells) | IC50 (HCT116-WT cells) [nM] | IC50 (PRMT5-MTA; read-out: IC50) [nM]
Cc1cc2nc(N)c3c(c2cc1C(=O)N1CC(C)CN1c1ncccc1F)COC3C (centres unmarked) [Example 510] | 4.8 | 222 | 33.55 | 7450 | –
Cc1cc2cc(C(=O)N(Cc3ccc(-c4cscn4)cn3)N(C)c3ncccn3)ccc2nc1N [Example 221, 2-amino-N',3-dimethyl-N'-(pyrimidin-2-yl)-N-((5-(thiazol-4-yl)pyridin-2-yl)methyl)quinoline-6-carbohydrazide] | – | 69 | 27.16 | 1870 | 2.3
CC1CN(C(=O)c2ccc3nc(N)c4cnn(C)c4c3c2)N(c2ncccc2F)C1 (centres unmarked) [Example 367, (4-amino-1-methyl-1H-pyrazolo[4,3-c]quinolin-8-yl)(2-(3-fluoropyridin-2-yl)-4-methylpyrazolidin-1-yl)methanone] | – | 106 | 49.62 | 5260 | 4.1
Cc1ncc(-c2ccc(CN(C(=O)c3ccc4nc(N)c(C)cc4c3)N(C)c3ncccn3)nc2)s1 [Example 151, 2-amino-N',3-dimethyl-N-((5-(2-methylthiazol-5-yl)pyridin-2-yl)methyl)-N'-(pyrimidin-2-yl)quinoline-6-carbohydrazide] | – | 19 | 31.63 | 601 | 6.4
COC1CN(C(=O)c2cc3c(cc2Cl)nc(N)c2cnn(C)c23)N(c2ncccc2F)C1 (centres unmarked) [Example 444, (4-amino-7-chloro-1-methyl-1H-pyrazolo [4,3-c]quinolin-8-yl)(2-(3-fluoropyridin-2-yl)-4-methoxypyrazolidin-1-yl)methanone] | – | 80 | 15.43 | 1230 | 3.7
CC(C)c1cc2cc(C(=O)N(Cc3ccc(C(F)(F)F)cn3)N(C)c3ncccn3)ccc2nc1N [Example 26, 2-amino-3-isopropyl-N'-methyl-N'-(pyrimidin-2-yl)-N-((5-(trifluoromethyl)pyridin-2-yl)methyl)quinoline-6-carbohydrazide] | – | 444 | 20.73 | 9200 | 2.4
Cc1cc2cc(C(=O)N(Cc3ccc(-c4nncs4)cn3)N(C)c3nccc4nccnc34)ccc2nc1N [Example 232, N-((5-(1,3,4-thiadiazol-2-yl)pyridin-2-yl)methyl)-2-amino-N',3-dimethyl-N'-(pyrido[3,4-b]pyrazin-5-yl)quinoline-6-carbohy drazide] | – | 46 | 21.63 | 995 | 4.3
Cc1cc2cc(C(=O)N(Cc3ccc(-c4cnn(C)c4)cn3)N(C)c3ncccc3F)ccc2nc1N [Example 179, 2-amino-N'-(3-fluoropyridin-2-yl)-N',3-di methyl-N-((5-(1-methyl-1H-pyrazol-4-yl)pyridin-2-yl)methyl)quinoline-6-carbohy drazide] | – | 64 | 20.56 | 1320 | 3.4
Cc1cc2cc(C(=O)N(Cc3ccc(C(F)(F)F)cn3)n3ccc4cccnc43)ccc2nc1N [Example 21, 2-amino-3-methyl-N-(1H-pyrrolo[2,3-b]pyridin-1-yl)-N-((5-(trifluoromethyl)pyridin-2-yl)methyl)quinoline-6-carboxamide] | – | 85 | 27.53 | 2340 | 1.9
Cc1cc2cc(C(=O)N(Cc3cc4cccc(F)c4cn3)N(C)c3ncccn3)ccc2nc1N [Example 123, 2-amino-N-((8-fluoroisoquinolin-3-yl)methyl)-N',3-dimethyl-N'-(pyrimidin-2-yl)quinoline-6-carbohydrazide] | – | 88 | 21.61 | 1900 | 2.9
Cc1cc2nc(N)c3cnn(C)c3c2cc1C(=O)N1CC(C)CN1c1cccc(C#N)n1 (centres unmarked) [Example 365, 6-(2-(4-amino-1,7-dimethyl-1H-pyrazolo [4,3-c]quinoline-8-formyl)-4-methylpyrazolidin-1-yl)pyridinecarbonitrile] | – | 35 | 48.37 | 1690 | 3.2
Cc1cc2cc(C(=O)N(Cc3ccc(C(F)(F)F)cn3)N(C)c3nccc4c3ncn4C)ccc2nc1N [Example 265, 2-amino-N',3-dimethyl-N'-(1-methyl-1H-imidazo[4,5-c]pyridin-4-yl)-N-((5-(trifluoromethyl)pyridin-2-yl)methyl)quinoline-6-carbohydrazide] | – | 38 | 14.45 | 549 | 2
Cn1ncc2c(N)nc3cc(Cl)c(C(=O)N4CC(F)(F)CN4c4ncccc4F)cc3c21 [Example 459, (4-amino-7-chloro-1-methyl-1H-pyrazolo [4,3-c]quinolin-8-yl)(4,4-difluoro-2-(3-fluoropyridin-2-yl)pyrazolidin-1-yl)methanone] | – | 30 | 13.60 | 408 | 4.7
Cn1ncc2c(N)nc3cc(Cl)c(C(=O)N4CC(F)(F)CN4c4ccccc4F)cc3c21 [Example 457, (4-amino-7-chloro-1-methyl-1H-pyrazolo [4,3-c]quinolin-8-yl)(4,4-difluoro-2-(2-fluorophenyl)pyrazolidin-1-yl)methanone] | – | 12 | 10.25 | 123 | 7.5
[2H]C([2H])([2H])N(c1nccc2nccnc12)N(Cc1ccc(Br)cn1)C(=O)c1ccc2nc(N)c(C)cc2c1 [Example 63, 2-amino-N-((5-bromopyridin-2-yl)methyl)-3-methyl-N'-(methyl-d3)-N'-(pyrido[3,4-b]pyrazin-5-yl)quinoline-6-carbohydrazide] | – | 53 | 19.02 | 1010 | 3.2
Cc1cc2nc(N)c3cnn(C)c3c2cc1C(=O)N1CC(F)CN1c1ncccc1F (centres unmarked) [Example 450, (4-amino-1,7-dimethyl-1H-pyrazolo[4,3-c]quinolin-8-yl)(4-fluoro-2-(3-fluoropyridin-2-yl)pyrazolidin-1-yl)methanone] | – | 20 | 61.20 | 1220 | 3.8
Cc1cc2nc(N)c3cnn(C)c3c2cc1C(=O)N1CC(C)CN1c1ccccc1Cl (centres unmarked) [Example 382, (4-amino-1,7-dimethyl-1H-pyrazolo[4,3-c]quinolin-8-yl)(2-(2-chlorophenyl)-4-methylpyrazolidin-1-yl)methanone] | – | 124 | 12.40 | 1540 | 4.8
Cc1cc2nc(N)c3cnn(C)c3c2cc1C(=O)N1CC(C(F)(F)F)CN1c1cccc(F)n1 (centres unmarked) [Example 352, (4-amino-1,7-dimethyl-1H-pyrazolo[4,3-c]quinolin-8-yl)(2-(6-fluoropyridin-2-yl)-4-(trifluoromethyl)pyrazolidin-1-yl)meth anone] | – | 77 | 29.42 | 2260 | 12.5
Cc1cc2nc(N)c3cnn(C)c3c2cc1C(=O)N1CC(C)CN1c1ncccc1Cl (centres unmarked) [Example 369, (4-amino-1,7-dimethyl-1H-pyrazolo[4,3-c]quinolin-8-yl)(2-(3-chloropyridin-2-yl)-4-methylpyrazolidin-1-yl)methanone] | – | 84 | 32.12 | 2700 | 3.9
Cc1cc2cc(C(=O)N(Cc3ccc(C(F)(F)F)cn3)N(C)c3ncc4[nH]ccc4n3)ccc2nc1N [Compound 120, 2-amino-N',3-dimethyl-N'-(5H-pyrrolo[3,2-d]pyrimidin-2-yl)-N-((5-(trifluoromethyl)pyridin-2-yl)methyl)quinoline-6-carbo hydrazide] | – | 10 | 17.00 | 170 | 2.5
Cc1cc2cc(C(=O)N(Cc3ccc(-c4cncs4)cn3)N(C)c3nccc4nccnc34)ccc2nc1N [Example 183, 2-amino-N',3-dimethyl-N'-(pyrido[3,4-b]pyrazin-5-yl)-N-((5-(thiazol-5-yl)pyridin-2-yl)methyl)quinoline-6-carbohydrazide] | – | 17 | 18.71 | 318 | 3.9
Cc1cc2cc(C(=O)N(Cc3ccc(C4=CCOC4)cn3)N(C)c3ncccn3)ccc2nc1N [Example 186, 2-amino-N-((5-(2,5-dihydrofuran-3-yl)pyridin-2-yl)methyl)-N',3-dimethyl-N'-(pyrimidin-2-yl)quinoline-6-carbohydrazide] | – | 122 | 23.20 | 2830 | 5.6
Cc1cc2cc(C(=O)N(Cc3ccc(-c4cnn(C(C)C)c4)cn3)N(C)c3ncccn3)ccc2nc1N [Example 203, 2-amino-N-((5-(1-isopropyl-1H-pyrazol-4-yl)pyridin-2-yl)methyl)-N',3-dimethyl-N'-(pyrimidin-2-yl)quinoline-6-carbohydrazide] | – | 40 | 25.65 | 1030 | 1.8
